Results from PubChem BioAssay (NCI).
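Five concentrations, 48 hours, 96-well plates. At the GI50, growth is halved. TGI marks complete inhibition of growth.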

Columns and labels:
Experiment in all cases: DTP human tumour cell line panel, 48 h
SF-268 CNS = tested on: SF-268 CNS
SNB-19 CNS = tested on: SNB-19 CNS
MALME-3M melanoma = tested on: MALME-3M melanoma
RPMI-8226 leukemia = tested on: RPMI-8226 leukemia
HL-60(TB) leukemia = tested on: HL-60(TB) leukemia
K-562 leukemia = tested on: K-562 leukemia
OVCAR-8 ovarian = tested on: OVCAR-8 ovarian
NCI-H522 lung = tested on: NCI-H522 lung
HCC-2998 colon = tested on: HCC-2998 colon
SF-295 CNS = tested on: SF-295 CNS

| Compound | GI50 (SF-268 CNS) | TGI (SF-268 CNS) | GI50 (SNB-19 CNS) | TGI (SNB-19 CNS) | GI50 (MALME-3M melanoma) | TGI (MALME-3M melanoma) | GI50 (RPMI-8226 leukemia) | TGI (RPMI-8226 leukemia) | GI50 (HL-60(TB) leukemia) | TGI (HL-60(TB) leukemia) | GI50 (K-562 leukemia) | TGI (K-562 leukemia) | GI50 (OVCAR-8 ovarian) | TGI (OVCAR-8 ovarian) | GI50 (NCI-H522 lung) | TGI (NCI-H522 lung) | GI50 (HCC-2998 colon) | TGI (HCC-2998 colon) | GI50 (SF-295 CNS) | TGI (SF-295 CNS) |
| --- | --- | --- | --- | --- | --- | --- | --- | --- | --- | --- | --- | --- | --- | --- | --- | --- | --- | --- | --- | --- |
| NC(N)=N/N=C/c1ccc(-c2ccc(-c3cc(Cl)cc(Cl)c3)s2)cc1 | 1.85 µM | 4.22 µM | 1.85 µM | 3.73 µM | 1.72 µM | 3.42 µM | 1.78 µM | 4.49 µM | 1.68 µM | 3.59 µM | 0.431 µM | 1.79 µM | 2.48 µM | 6.34 µM | 1.85 µM | 4.45 µM | 1.94 µM | 3.83 µM | 1.84 µM | 3.47 µM |
| N/N=c1\c2ccccc2c2cc3c(cc12)/c(=N/N)c1ccccc13 | – | > 100 µM | – | > 100 µM | – | > 100 µM | – | > 100 µM | – | > 100 µM | – | > 100 µM | – | > 100 µM | – | > 100 µM | – | > 100 µM | – | > 100 µM |
| Cc1cc(N(CCCl)CCCl)ccc1C=Nc1ccc2ccccc2c1 | 15.8 µM | > 100 µM | 51.2 µM | > 100 µM | 50.3 µM | > 100 µM | 29.3 µM | > 100 µM | 8.6 µM | > 68.6 µM | 32.4 µM | > 100 µM | 24.3 µM | > 100 µM | 20.1 µM | > 66.5 µM | 27.9 µM | > 100 µM | 2.08 µM | > 55.8 µM |
| Cn1cc(C2=C(c3cn(C)c4ccccc34)C(=O)NC2=O)c2ccccc21 | 3.1 µM | > 25 µM | 11.5 µM | > 25 µM | 4.42 µM | > 25 µM | > 8.42 µM | > 25 µM | 0.747 µM | 5.1 µM | 0.235 µM | > 25 µM | 2.96 µM | > 25 µM | 0.433 µM | 2.52 µM | > 25 µM | > 25 µM | 0.903 µM | > 25 µM |
| CC1(C)[C@@H](OC(=O)CCC(=O)O)CC[C@]2(C)[C@H]3C(=O)C=C4[C@@H]5C[C@@](C)(C(=O)O)CC[C@]5(C)CC[C@@]4(C)[C@]3(C)CC[C@@H]12 | 55.7 µM | 143 µM | 55 µM | 141 µM | 90.8 µM | 128 µM | 50.9 µM | 69.9 µM | 54.6 µM | 73.6 µM | 56.2 µM | 230 µM | 59.1 µM | 154 µM | 51.1 µM | 80.7 µM | 56.1 µM | 80.5 µM | 48.7 µM | 65 µM |
| C=C(C(=C)P(=S)(c1ccccc1)c1ccccc1)P(=S)(c1ccccc1)c1ccccc1 | – | > 100 µM | – | > 100 µM | – | > 100 µM | – | > 100 µM | – | > 100 µM | – | > 100 µM | – | > 100 µM | – | > 100 µM | – | > 100 µM | – | > 100 µM |
| CC#CC1C2CCCC1(CSc1ccccc1)NC(=O)O2 (configuration not stated) | – | > 100 µM | – | > 100 µM | – | > 100 µM | – | > 100 µM | – | > 100 µM | – | > 100 µM | – | > 100 µM | – | > 100 µM | – | > 100 µM | – | > 100 µM |
| O=c1ssc(Cl)c1Cl | – | > 10 µM | – | > 10 µM | – | 9.77 µM | – | 9.11 µM | – | 6.04 µM | – | 9.04 µM | – | > 10 µM | – | > 6.78 µM | – | > 10 µM | – | > 10 µM |
| CC(=O)Nc1ccc(COC(O)CN2CCCCC2)cc1[N+](=O)[O-] (configuration not stated) | – | > 100 µM | – | > 100 µM | – | > 100 µM | – | > 100 µM | – | > 100 µM | – | > 100 µM | – | > 100 µM | – | > 100 µM | – | > 100 µM | – | > 100 µM |
| COc1ccc2nc3cc(Cl)ccc3c(Sc3ccc([N+](=O)[O-])cc3)c2c1 | > 100 µM | > 100 µM | > 100 µM | > 100 µM | > 100 µM | > 100 µM | – | > 100 µM | – | > 100 µM | > 100 µM | > 100 µM | > 100 µM | > 100 µM | > 100 µM | > 100 µM | – | > 10 µM | > 100 µM | > 100 µM |
| N#C[Se]CCCNS(=O)(=O)C1CC2C=CC1C2 (configuration not stated) | 0.301 µM | 0.916 µM | 1.05 µM | 2.91 µM | 0.416 µM | 1.87 µM | 2.17 µM | 5.55 µM | 0.326 µM | 1.31 µM | 1.78 µM | > 41.6 µM | 0.511 µM | 5.06 µM | 1.78 µM | 4.2 µM | 1.95 µM | 4.73 µM | 1.01 µM | 2.43 µM |
| CC(=O)OC1CC2C3CCC4C[C@@H](NC(=O)C=C(C)C)CC[C@]4(C)C3CC[C@]2(C)[C@H]1C(C)N(C)C (some centres not stated) | 1.58 µM | 3.4 µM | 3.63 µM | 9.06 µM | 2.04 µM | 4.53 µM | 1.66 µM | 5.67 µM | 2.23 µM | 5.46 µM | 0.509 µM | 2.22 µM | 4.87 µM | > 31.5 µM | 2.78 µM | 11.4 µM | 1.75 µM | 3.57 µM | 2.11 µM | 4.75 µM |
| CN1CCN(C)C12C=CC=CC21CC1 | – | > 100 µM | – | > 100 µM | – | > 100 µM | – | > 100 µM | – | > 100 µM | – | > 100 µM | – | > 100 µM | – | > 100 µM | – | > 100 µM | – | > 100 µM |
| CN(C)c1ccc(/C=C/C2=[N+](C)c3ccccc3C2(C)C)cc1 | 0.5 µM | 18.3 µM | 0.691 µM | 18.4 µM | 0.662 µM | 13.1 µM | 0.247 µM | 3.48 µM | 0.231 µM | 0.801 µM | 0.512 µM | > 100 µM | 0.349 µM | 12.1 µM | 0.587 µM | 10.1 µM | 1.35 µM | 11.5 µM | 1.12 µM | 6.64 µM |
